Test results from patent US10131657B2, “Bromodomain inhibitors” (AbbVie Inc., priority 2013, dated 2018).

Experiments:
BRD4 (BDI_K57-E168) = target: T1, BRD4 (BDI_K57-E168) (Homo sapiens, UniProt O60885); experiment: TR-FRET bromodomain binding assay, BRD4 first bromodomain; settings: His-tagged BRD4 BD1, 100 nM Alexa647 probe; Ki calculated from IC50, probe Kd and probe concentration
T1 construct: BD1: amino acids K57-E168; made in house
Protocol: (§1) A time-resolved fluorescence resonance energy transfer (TR-FRET) assay was used to determine the affinities of compounds of the Examples listed in Table 1 for each bromodomain of BRD4. His-tagged first (BD1: amino acids K57-E168) and second (BD2: amino acids E352-E168) bromodomains of BRD4 were expressed and purified. An Alexa647-labeled BET-inhibitor was used as the fluorescent probe in the assay.
(§2) Compound dilution series were prepared in DMSO via a 3-fold serial dilution from 2.5 mM to 42 nM. Compounds were then diluted 6:100 in assay buffer (20 mM Sodium Phosphate, pH 6.0, 50 mM NaCl, 1 mM Ethylenediaminetetraacetic acid disodium salt dihydrate, 0.01% Triton X-100, 1 mM DL-Dithiothreitol) to yield 3× working solutions. Six microliters (μL) of the working solution was then transferred to white, low-volume assay plates (Costar #3673). A 1.5× assay mixture containing His-tagged bromodomain, Europium-conjugated anti-His antibody (Invitrogen PV5596) and the Alexa-647-conjugated probe molecule was also prepared. Twelve μL of this solution were added to the assay plate to reach a final volume of 18 μL. The final concentration of 1× assay buffer contains 2% DMSO, 50 μM-0.85 nM compound, 8 nM His-tagged bromodomain, 1 nM Europium-conjugated anti-His-tag antibody and 100 nM or 30 nM probe (for BDI or BDII, respectively). After a one-hour incubation at room temperature, TR-FRET ratios were determined using an Envision multilabel plate reader (Ex 340, Em […]).
(§3) TR-FRET data were normalized to the means of 24 no-compound controls (“high”) and 8 controls containing 1 μM un-labeled probe (“low”). […] Inhibition constants (Ki) were calculated from the IC50s, probe Kd and probe concentration. […] The minimum significant ratio was determined to evaluate assay reproducibility (Eastwood et al., (2006) J Biomol Screen, 11: 253-261). The MSR was determined to be 2.03 for BDI and 1.93 for BDII, and a moving MSR (last six run MSR overtime) for both BDI and BDII was typically <3.

BRD4 (BDII_E352-M457) = target: T2, BRD4 (BDII_E352-M457) (Homo sapiens, UniProt O60885); experiment: TR-FRET bromodomain binding assay, BRD4 second bromodomain; settings: His-tagged BRD4 BD2, 30 nM Alexa647 probe; Ki calculated from IC50, probe Kd and probe concentration
T2 construct: made in house
Protocol: as §1, §2, §3

[1] = system: breast cancer cell line MX-1; experiment: MX-1 cell line proliferation assay, Method A; assay type: cell-based; settings: Homo sapiens, MX1; MX-1 cells, 96-well, 72 hours, Cell Titer Glo; read-out: Cellular proliferation: EC50 Method A
In short: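 MX-1 breast cancer cells (5000/well) were attached overnight in RPMI 1640 with 10% FBS, then exposed for 3 days to compound at 0.0001–3 μM final. Cell Titer Glo luminescence was normalized to DMSO controls, and EC50s were obtained by sigmoidal fitting.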

[2] = system: breast cancer cell line MX-1; experiment: MX-1 cell line proliferation assay, Method B; assay type: cell-based; settings: Homo sapiens, MX1; MX-1 cells, 384-well, 72 hours, Cell Titer Glo; read-out: Cellular proliferation: EC50 Method B
Protocol: The impact of compounds of the Examples on cancer cell proliferation was determined using the breast cancer cell line MX-1 (ATCC) in a 3-day proliferation assay and the data are reported in Table 1.
MX-1 cells were maintained in RPMI 1640 medium (Sigma) supplemented with 10% FBS at 37° C. and an atmosphere of 5% CO2. For compound testing, MX-1 cells were plated in 384-well white with clear, flat bottom plates at a density of 750 cells/well in 25 μL of culture media and incubated at 370 overnight to allow cell adhesion and spreading. Ten point compound dilution series were prepared in DMSO via a 3-fold serial dilution from either 10 μM or 1 μM stock and added directly to the appropriate wells of the MX-1 cell plate by an ECHO liquid handler (Labcyte). The final compound concentrations in the wells were 10, 3.25, 1, 0.25, 0.124, 0.040, 0.0124, 0.0031, 0.0015 and 0.0005 μM or 1, 0.33, 0.1, 0.025, 0.0124, 0.004, 0.0012, 0.0003, 0.00015, 0.00005 μM, depending on the concentration of the compound stock solution.
Luminescence readings from the Cell Titer Glo assay were normalized to the DMSO treated cells and analyzed using Accelrys Assay Explorer 3.3 software with sigmoidal curve fitting to obtain EC50s. The minimum significant ratio (MSR) was determined to evaluate assay reproducibility (Eastwood et al., (2006) J Biomol Screen, 11: 253-261). The overall MSR was determined to be 3.3 and a moving MSR (last six run MSR overtime) has averaged 2.1.

Row | SMILES | EC50 [2] [nM] | also measured
1 | CCS(=O)(=O)c1ccc(OCC2CC2(F)F)c(-c2cn(C)c(=O)c3[nH]c(CN4CCN(c5ncccn5)CC4)cc23)c1 (centres unmarked) [Example 19, 4-{2-[(2,2-difluorocyclopropyl)methoxy]-5-(ethylsulfonyl)phenyl}-6-methyl-2-{[4-(pyrimidin-2-yl)piperazin-1-yl]methyl}-1,6-dihydro-7H-pyrrolo[2,3-c]pyridin-7-one] | – | Ki (BRD4 (BDI_K57-E168)): 6.1 nM; Ki (BRD4 (BDII_E352-M457)): 62 nM
2 | COc1ccc(S(=O)(=O)Nc2cccc(Oc3ccc(S(C)(=O)=O)cc3-c3cn(C)c(=O)c4[nH]ccc34)c2)cc1OC [Example 53, 3,4-dimethoxy-N-{3-[2-(6-methyl-7-oxo-6,7-dihydro-1H-pyrrolo[2,3-c]pyridin-4-yl)-4-(methylsulfonyl)phenoxy]phenyl}benzenesulfonamide] | – | Ki (BRD4 (BDI_K57-E168)): 3.4 nM; Ki (BRD4 (BDII_E352-M457)): 1 nM; EC50 [1]: 144 nM
3 | Cn1cc(-c2cc(S(C)(=O)=O)ccc2NC2CCN(S(=O)(=O)/C=C/c3ccccc3)CC2)c2cc[nH]c2c1=O [Example 102, 6-methyl-4-{5-(methylsulfonyl)-2-[(1-{[(E)-2-phenylethenyl]sulfonyl}piperidin-4-yl)amino]phenyl}-1,6-dihydro-7H-pyrrolo[2,3-c]pyridin-7-one] | – | Ki (BRD4 (BDI_K57-E168)): 6 nM; Ki (BRD4 (BDII_E352-M457)): 6.8 nM; EC50 [1]: 67.3 nM
4 | CCNC(=O)c1cc2c(-c3cc(S(=O)(=O)CC)ccc3Oc3c(C)cccc3CN3CCOCC3)cn(C)c(=O)c2[nH]1 [Example 146, N-ethyl-4-{5-(ethylsulfonyl)-2-[2-methyl-6-(morpholin-4-ylmethyl)phenoxy]phenyl}-6-methyl-7-oxo-6,7-dihydro-1H-pyrrolo[2,3-c]pyridine-2-carboxamide] | 9320 | –
5 | CCNC(=O)c1cc2c(-c3cc(S(=O)(=O)CC)ccc3Oc3c(C)cccc3CN3CCCCC3)cn(C)c(=O)c2[nH]1 [Example 147, N-ethyl-4-{5-(ethylsulfonyl)-2-[2-methyl-6-(piperidin-1-ylmethyl)phenoxy]phenyl}-6-methyl-7-oxo-6,7-dihydro-1H-pyrrolo[2,3-c]pyridine-2-carboxamide] | 6320 | –
6 | CCNC(=O)c1cc2c(-c3cc(S(=O)(=O)CC)ccc3Oc3c(C)cccc3Cn3ccnc3)cn(C)c(=O)c2[nH]1 [Example 150, N-ethyl-4-{5-(ethylsulfonyl)-2-[2-(1H-imidazol-1-ylmethyl)-6-methylphenoxy]phenyl}-6-methyl-7-oxo-6,7-dihydro-1H-pyrrolo[2,3-c]pyridine-2-carboxamide] | > 10000 | –
7 | CCNC(=O)c1cc2c(-c3cc(S(=O)(=O)CC)ccc3Oc3c(C)cccc3CN3CCCS3(=O)=O)cn(C)c(=O)c2[nH]1 [Example 152, 4-[2-{2-[(1,1-dioxido-1,2-thiazolidin-2-yl)methyl]-6-methylphenoxy}-5-(ethylsulfonyl)phenyl]-N-ethyl-6-methyl-7-oxo-6,7-dihydro-1H-pyrrolo[2,3-c]pyridine-2-carboxamide] | 8140 | –
8 | CCNC(=O)c1cc2c(-c3ccc(C(=O)N(CC(=O)NC)Cc4ccccn4)cc3Oc3c(C)cccc3C)cn(C)c(=O)c2[nH]1 [Example 153, 4-[2-(2,6-dimethylphenoxy)-4-{[2-(methylamino)-2-oxoethyl](pyridin-2-ylmethyl)carbamoyl}phenyl]-N-ethyl-6-methyl-7-oxo-6,7-dihydro-1H-pyrrolo[2,3-c]pyridine-2-carboxamide] | > 10000 | –

Continued, in another order:

Row | EC50 [2] [nM] | SMILES | also measured
9 | 532 | CCN(CC)C(C)(C)CNC(=O)c1cc2c(-c3cc(S(C)(=O)=O)ccc3Oc3c(C)cccc3C)cn(C)c(=O)c2[nH]1 [Example 143, N-[2-(diethylamino)-2-methylpropyl]-4-[2-(2,6-dimethylphenoxy)-5-(methylsulfonyl)phenyl]-6-methyl-7-oxo-6,7-dihydro-1H-pyrrolo[2,3-c]pyridine-2-carboxamide] | –
10 | 498 | CCN(CC)CCCCNC(=O)c1cc2c(-c3cc(S(C)(=O)=O)ccc3Oc3c(C)cccc3C)cn(C)c(=O)c2[nH]1 [Example 144, N-[4-(diethylamino)butyl]-4-[2-(2,6-dimethylphenoxy)-5-(methylsulfonyl)phenyl]-6-methyl-7-oxo-6,7-dihydro-1H-pyrrolo[2,3-c]pyridine-2-carboxamide] | –
11 | 1680 | CCNC(=O)c1cc2c(-c3cc(S(=O)(=O)CC)ccc3Oc3c(C)cccc3CCc3ccccc3)cn(C)c(=O)c2[nH]1 [Example 148, N-ethyl-4-{5-(ethylsulfonyl)-2-[2-methyl-6-(2-phenylethyl)phenoxy]phenyl}-6-methyl-7-oxo-6,7-dihydro-1H-pyrrolo[2,3-c]pyridine-2-carboxamide] | –
12 | 1.18 | CCS(=O)(=O)c1ccc(OC2CCCCC2)c(-c2cn(C)c(=O)c3[nH]c(-c4cnn(C5CCNCC5)c4)cc23)c1 [Example 149, 4-[2-(cyclohexyloxy)-5-(ethylsulfonyl)phenyl]-6-methyl-2-[1-(piperidin-4-yl)-1H-pyrazol-4-yl]-1,6-dihydro-7H-pyrrolo[2,3-c]pyridin-7-one] | –
13 | 332 | Cn1cc(-c2cc(S(C)(=O)=O)ccc2Oc2ccc(F)cc2F)c2cc(CN3CC(n4cncn4)C3)[nH]c2c1=O [Example 156, 4-[2-(2,4-difluorophenoxy)-5-(methylsulfonyl)phenyl]-6-methyl-2-{[3-(1H-1,2,4-triazol-1-yl)azetidin-1-yl]methyl}-1,6-dihydro-7H-pyrrolo[2,3-c]pyridin-7-one] | –
14 | 599 | Cn1cc(-c2cc(S(C)(=O)=O)ccc2Oc2ccc(F)cc2F)c2cc(CNCCC(N)=O)[nH]c2c1=O [Example 159, 3-[({4-[2-(2,4-difluorophenoxy)-5-(methylsulfonyl)phenyl]-6-methyl-7-oxo-6,7-dihydro-1H-pyrrolo[2,3-c]pyridin-2-yl}methyl)amino]propanamide] | –
15 | 1950 | CCNC(=O)c1cc2c(-c3ccc(C(=O)N(CCCN4CCOCC4)Cc4ccccc4)cc3Oc3c(C)cccc3C)cn(C)c(=O)c2[nH]1 [Example 161, 4-[4-{benzyl[3-(morpholin-4-yl)propyl]carbamoyl}-2-(2,6-dimethylphenoxy)phenyl]-N-ethyl-6-methyl-7-oxo-6,7-dihydro-1H-pyrrolo[2,3-c]pyridine-2-carboxamide] | –
